Tests used:
Du145 cells [1] = experiment: Western blot of phosphorylated cRaf, MEK1/2, ERK and Akt in Du145 cells; format: cell-based, human
Procedure: (§1) FIG. 2: Adrenomedullin stimulates Du145 cell proliferation and invasion in vitro. A, AM induced cAMP formation in cultured Du145 cells. Cells (3×10^4 cells/ml) were treated with AM (10^−9 M-10^−7 M) for different times. Each value is the mean±SEM of three independent experiments performed in quadruplate (*, p<0.05; **, p<0.01; ***, p<0.001). B, oppose effects of AM and αAM on the growth of Du145 cells in vitro. For proliferation assays, Du145 cells were seeded at the density of 1×10^4 per well in 6 multiwell plates in presence of RPMI 1640 medium supplemented with 5% FBS. AM at 10^−7 M and αAM (70 μg/ml) were added. As control, rabbit control IgG (70 μg/ml) of irrelevant specificity was used. For each treatment, three wells were prepared, exposed to trypsin and cells were counted in Coulter Counter. Each bar represents the mean±SEM of four independent experiments (**, p<0.01; ***, p<0.001). C, AM stimulates Du145 cells invasion in vitro. Du145 cells (1.5×10^4 cells) were added into Biocoat Matrigel invasion upper chamber and 10^−7 M of AM were added into the lower chamber, and after 6 h, noninvaded cells in the upper membrane were removed and cells invading into the lower membrane were quantified by fluorescence by adding DAPI reagent at least 45 min before taking the reading. RPMI 1640 containing 2% FBS was used as control. bFGF was used as positive control. Data are expressed as the number of migrated cells in 10 high-power fields and are the means of results from three independent experiments. Each bar represents the mean±SEM (**, p<0.01; ***, p<0.001). D, intracellular signalling pathway induced by AM in Du145 cells. Western blot analysis of phosphorylated cRAF (pcRAF), pMEK1/2, pERK (44 and 42 kDa) and ERK in Du145 cells, stimulated with AM (5×10^−7 M) for 2, 5, 10, 20, and 30 min. AM (5×10^−7 M)-induced phosphorylation of ERK was inhibited by mitogen-activated protein kinase kinase inhibitor, U0126 (10 μM, 30 min). EGF was used as positive control known to stimulate phosphorylation of cRAF, MEK, and ERK. To assess the amount of proteins loaded for each sample, immunoblot analysis was performed with anti-α-actin.
Western blotting analysis: Cell extracts were prepared and processed for CLR, RAMP2 and RAMP3 western blot analysis as described (29). Immunoblotting of phospho-c-Raf, phospho-MEK1/2, phospho-ERK1/2, and ERK1/2 was performed using MAPK-phospho-ERK1/2 pathway samples kit (Cell Signaling Technologie, Inc.).

LNCaP cells [2] = experiment: Cell proliferation assay, LNCaP cells; format: cell-based, human; conditions: AM 2×10^-7 M; 5% FBS
Procedure: (§2) FIG. 10: Effect of AM and αAM on LNCaP cells in vitro. A, total RNA (1 μg) DNA-free from LNCaP cell line was reverse transcribed into cDNA and subjected to real-time quantitative reverse transcription (RT)-PCR for the estimation of relative CLR, RAMP2 and RAMP3 mRNAs to 18S rRNA ratio. B, effects of AM and αAM on LNCaP cells growth in vitro. For proliferation assay, LNCaP cells were seeded and treated in the presence of 5% FBS as described for PC3 cells in FIG. 9. C, no effects of AM on LNCaP cells invasion in vitro. For invasion assays, LNCaP cells (5×10^4 cells) were seeded on a Matrigel layer in a boyden chamber assay and analyzed as described for PC3 cells in FIG. 9.
Cell proliferation assay: The effects of AM, αAM and control IgG on cell proliferation was examined at the indicated time points as described (19).

[3] = test system: lymphatic endothelial cells; experiment: LEC death after serum deprivation; format: cell-based, human; conditions: AM 10^-7 M
Procedure: FIG. 12. AM is a growth factor survival for lymphatic endothelial cells. Time course of LEC death after DMEM serum deprivation in the absence and presence of AM (10^−7M). Exponentially growing cells were changed into serum-free medium, and all floating cells after 12, 24 and 48 h were counted with a coulter counter. Each point and bar represents mean±SEM (n=6); values were normalized to the total number of floating dead cells 48 h after serum deprivation in the absence of AM, which was set at 100%. **, p<0.01.

Du145 cells [4] = experiment: Matrigel invasion assay (modified Boyden chamber), Du145 cells; format: cell-based, human
Procedure: as §1, with “C, AM stimulates Du145 cells invasion in vitro.” left out, “RPMI 1640 containing 2% FBS was used as control. bFGF was used as positive control.” left out, “Each bar represents the mean±SEM (**, p<0.01; ***, p<0.001). D, intracellular signalling pathway induced by AM in Du145 cells. Western blot analysis of phosphorylated cRAF (pcRAF), pMEK1/2, pERK (44 and 42 kDa) and ERK in Du145 cells, stimulated with AM (5×10^−7 M) for 2, 5, 10, 20, and 30 min. AM (5×10^−7 M)-induced phosphorylation of ERK was inhibited by mitogen-activated protein kinase kinase inhibitor, U0126 (10 μM, 30 min). EGF was used as positive control known to stimulate phosphorylation of cRAF, MEK, and ERK. To assess the amount of proteins loaded for each sample, immunoblot analysis was performed with anti-α-actin.” left out

PC-3 cells [5] = experiment: Matrigel invasion assay (modified Boyden chamber), PC3 cells; format: cell-based, human; conditions: AM 10^-7 M, 6 h
Procedure: (§3) FIG. 9: Effect of AM on PC3 cells in vitro. A, expression of AMR mRNAs in PC3 cells. Total RNA (1 μg) DNA-free from PC3 cell line was reverse transcribed into cDNA and subjected to real-time quantitative reverse transcription (RT)-PCR for the estimation of relative CLR, RAMP2 and RAMP3 mRNAs to 18S rRNA ratio. B, effects of AM and αAM on the growth of PC3 cells in vitro. For proliferation assays, PC3 cells were seeded at the density of 2×10^4 per well in 24 multiwell plates in the presence of RPMI 1640 medium supplemented with 2% FBS. AM at 10^−7M or αAM (70 μg/ml) were added. As control, rabbit control IgG (70 μg/ml) of irrelevant specificity was used. For each treatment, six wells were prepared, exposed to trypsin and cells were counted in Coulter Counter. Each bar represents the mean±SEM of four independent experiments. […] PC3 cells (3×10^4 cells) were added into Biocoat Matrigel invasion upper chamber and 10^−7 M of AM were added into the lower chamber, and after 6 h, non-invaded cells in the upper membrane were removed and cells invading into the lower membrane were quantified by fluorescence by adding DAPI reagent 45 min before taking the reading. Data are expressed as the number of migrated cells in 10 high-power fields and are the means of results from three independent experiments each performed in triplicate. bFGF was used as positive control. […]

Du145 cells [6] = experiment: Cyclic AMP assay in Du145 cells; format: cell-based, human
Procedure: as §1, with “To assess the amount of proteins loaded for each sample, immunoblot analysis was performed with anti-α-actin.” left out

human LEC = experiment: Proliferation, migration and invasion of human LECs in vitro; format: cell-based; conditions: AM 10^-7 M; proliferation 6 days, migration 20 h, invasion 48 h
Procedure: Neonatal Human Dermal Lymphatic Microvascular Endothelial Cells (HMVEC-dLyNeo) were purchased from Lonza (Lonza, Basel, Switzerland), and expanded in microvascular endothelial cell growth medium-2 (EGM-2MV, Lonza) with growth supplements (EGM-2MV, Lonza). A, total RNA (1 μg) DNA-free from LECs was reverse transcribed into cDNA and subjected to real-time quantitative reverse transcription (RT)-PCR for the estimation of relative AM, CLR, RAMP2 and RAMP3 mRNAs to 18S rRNA ratio. B, oppose effect of AM and αAM on the growth of LECs in vitro. For proliferation assay, LECs were seeded at the density of 3.5×10^4 per well in 6 multiwell plates in the presence of EBM-2 medium supplemented with 0.5% FBS. AM (10^−7 M) and αAM (70 μg/ml) were added for 6 days treatment. After treatment, cells were exposed to trypsin and were prepared for cell number counting in a coulter counter. […] Cells migrating through the filter were counted after 20 h (C) and those migrating in presence of Matrigel were counted after 48 h (D). Data are expressed as the number of migrated cells in 10-high-power fields, and the values represent the mean±SEM of three independent experiments each performed in triplicate (*p<0.05; **p<0.01; ***p<0.001).
Cell migration and invasion assays: The migration and chemoinvasion were assessed using a modified Boyden chamber assay (7). […]

LNCaP cells [7] = experiment: Matrigel invasion assay (modified Boyden chamber), LNCaP cells; format: cell-based, human
Procedure: as §2
Cell migration and invasion assays: The migration and chemoinvasion were assessed using a modified Boyden chamber assay (7). Du145 (15×10^−3), LNCaP (50×10^−3), and PC3 (30×10^−3) cells were added to the upper compartment during 6 h. For LECs, (30×10^−3) cells were added during 48 h for invasion and 20 h for migration.

Du145 cells [8] = experiment: Cell proliferation assay, Du145 cells; format: cell-based, human; conditions: AM 10^-7 M
Procedure: as §1, with “C, AM stimulates Du145 cells invasion in vitro.” left out, “RPMI 1640 containing 2% FBS was used as control. bFGF was used as positive control.” left out, “Each bar represents the mean±SEM (**, p<0.01; ***, p<0.001). D, intracellular signalling pathway induced by AM in Du145 cells. Western blot analysis of phosphorylated cRAF (pcRAF), pMEK1/2, pERK (44 and 42 kDa) and ERK in Du145 cells, stimulated with AM (5×10^−7 M) for 2, 5, 10, 20, and 30 min. AM (5×10^−7 M)-induced phosphorylation of ERK was inhibited by mitogen-activated protein kinase kinase inhibitor, U0126 (10 μM, 30 min). EGF was used as positive control known to stimulate phosphorylation of cRAF, MEK, and ERK. To assess the amount of proteins loaded for each sample, immunoblot analysis was performed with anti-α-actin.” left out

PC-3 cells [9] = experiment: Cell proliferation assay, PC3 cells; format: cell-based, human; conditions: AM 10^-7 M or αAM 70 μg/ml; 2% FBS
Procedure: as §3

With N#CC(=C(/N)Sc1ccccc1N)/C(C#N)=C(\N)Sc1ccccc1N [U0126] the “inhibition of p-ERK induced by AM” value (Du145 cells [1]; U0126 10 μM, 30 min, AM 5×10^-7 M) was “completely inhibited”.

For adrenomedullin [AM], the “growth rates of LNCaP cells versus control cells” value (LNCaP cells [2]) was “slight decrease in the growth rates”, the “apoptosis (floating cells) after serum deprivation” value ([3]; persisted during 48 h, LECs) was “prevented the apoptosis” and the “apoptotic cell death of adherent culture” value ([3]; serum deprived LECs) was “markedly suppressed”. For the same compound, the “increase of invasion compared with control” value (Du145 cells [4]; AM 10^-7 M in bottom wells, 6 h) was 92±22%, the “levels of p-MEK and p-ERK” value (Du145 cells [1]; AM 5×10^-7 M, as early as 2 and 5 min, sustained up to 30 min) was “significantly increased” and the cRaf phosphorylation (Du145 cells [1]; AM 5×10^-7 M, as early as 2 min, control levels up to 10 min) was “increased cRaf phosphorylation”. The “level of p-Akt” value (Du145 cells [1]; AM stimulation) was “not markedly increased”, the induction of invasion (PC-3 cells [5]) was 144±7.6% and the “time at which cAMP increase reached a maximum” value (Du145 cells [6]; AM 10^-7 M) was 5 min. For the same compound, the “increase in cAMP content” value (Du145 cells [6]; AM 10^-7 M, IBMX 10^-4 M) was 2.8±0.14 fold, the “stimulation of cAMP formation with graded concentration” value (Du145 cells [6]; AM 10^-9-10^-7 M, 5 min) was “dose-dependent stimulation” and the “effect of AM on LECs” value (human LEC) was “induces proliferation, migration and invasion of LECs”. The “effect on LNCaP cells invasion” value (LNCaP cells [7]) was “No effect”, the “stimulation of proliferation compared with untreated cells” value (Du145 cells [8]; 6 days) was 51±9.9% and the “stimulation of proliferation compared with untreated cells” value (Du145 cells [8]; 8 days) was 96±14.6%. For the same compound, the “proliferative response of PC-3 cells” value (PC-3 cells [9]) was “no proliferative responses”.

For “bFGF: Growth factor used as positive control in invasion and migration assays”, the “effect on invasion relative to AM” value (Du145 cells [4]; bFGF 10^-6 M, positive control) was “similar”.

Source: patent US20140308298A1, “Diagnostic and Treatment of an Androgen-Independent Prostate Cancer” (UNIVERSITE D'AIX MARSEILLE, priority 2011, published 2014)
